# Data taken from patent EP0248597A2, “Phospholipase A2 inhibitors and methods of synthesis” (ORTHO PHARMACEUTICAL CORPORATION, priority 1986, dated 1987).
# Where “and” joins values, the source holds several entries; their conditions need not be identical. Identical values can stand only once. Counter-ions that a name gives are not always drawn.
# How the values were obtained:
# [1] = target: T1, Porcine Pancreas Phospholipase A2 (Sus scrofa, UniProt P00592); test: Phospholipase A2 assay (hydrolysis of 14C-arachidonyl phosphatidyl choline), porcine pancreas enzyme; assay type: biochemical
# T1 construct: purchased Sigma Chemical Co., St. Louis, MO; host or cells: porcine pancreas
# T1 sequence (P00592 23-146): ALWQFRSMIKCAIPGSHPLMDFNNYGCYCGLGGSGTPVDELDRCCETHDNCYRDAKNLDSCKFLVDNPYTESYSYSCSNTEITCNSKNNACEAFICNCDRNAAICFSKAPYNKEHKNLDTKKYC
# Description: (§1) The following procedure is a modification of the Phospholipase A₂ assay that was first described by Costentino et al., Prostaglandins, 22, 309 (1981) and is the method used herein to determine rat stomach and porcine pancreas phospholipas A₂ activity.
# (§2) A suspension of phospholipase A₂ (Sigma Chemical Co., St. Louis, MO) is diluted with 25 millimolar (mM) Tris HCl buffer containing 1 mM calcium chloride to a final concentration of 10 micrograms of protein per milliliter (ml). Aliquots of 0.1 ml (7.1 units) of the enzyme suspension are added to each assay tube. Test compounds are added tin 0.01 ml aliquots in dimethyl sulfoxide or methanol and the volume is brought to 0.15 ml with the buffer. A preincubation is carried out at 37°C for 5 minutes. To start the reaction, 0.01 microcuries (0.179 nanomoles) of 2-arachidonyl (1-¹⁴C) 1-palmitoyl phosphatidyl choline (New England Nuclear, Boston, MA) are added to each tube, including three blank tubes containing no enzyme, and the incubation is carried out for 10 minutes at 37°C. The reaction is stopped with the addition of 0.07 ml of 1N HCl to each tube. Blanks, controls and each concentration of test compound are assayed in triplicate.
# (§3) The reaction mixtures are extracted with ethyl acetate, and the organic and aqueous phases are separated by low speed centrifugation. The organic phase is dried under nitrogen and is then resuspended in 0.01 ml ethyl acetate. Arachidonic acid (50 micrograms in 0.01 ml methanol) is added to each tube as a carrier and standard. The entire mixture is spotted on silica gel G thin layer chromatography plates that are developed in a solvent system of ethyl acetate:acetic acid (99:1 by volume). […] Ten ml of Aquasol-2 (American Cyanamid Co., Wayne, NJ) are added to each vial, and the radioactivity is counted by liquid scintillation spectrometry.
# (§4) The data are calculated as the ratio in percent of unesterified arachidonic acid to total radioactivity recovered. The potency of a compound is preferably determined by its IC₅₀ value (the concentration required to inhibit the reaction by 50 percent). […]
# [2] = test system: experimentally-induced inflammation in the mouse ear; test: Mouse ear edema assay (topical anti-inflammatory activity); assay type: in vivo
# Description: Compound 2 was also studied in a mouse ear edema assay to provide a measure of topical anti-inflammatory activity.
# The topical antiinflammatory activity of a compound is determined by its ability to inhibit an experimentally-induced inflammation in the mouse ear. Croton oil, or 12-0-tetradecanoylphorbol acetate in acetone is dispensed onto the dorsum of one ear of the mouse. Five to six hours later the mice are sacrificed. A section of each ear is removed with a 7 mm cork borer and weighed on a electronic balance. The difference in weight between treated and untreated ears is determined. Compounds to be evaluated for antiinflammatory activity are incorporated in the croton oil irritant mixture, or applied in an appropriate vehicle.
# [3] = target: Rat Stomach Phospholipase A2 (Rattus norvegicus, UniProt P04055); test: Phospholipase A2 assay (hydrolysis of 14C-arachidonyl phosphatidyl choline), rat stomach enzyme; assay type: biochemical; details: at 10^-4M; read-out: Percent Inhibition of the Hydrolytic Activity of Rat Stomach Phospholipase A2
# Chain of Rat Stomach Phospholipase A2 (P04055 23-146): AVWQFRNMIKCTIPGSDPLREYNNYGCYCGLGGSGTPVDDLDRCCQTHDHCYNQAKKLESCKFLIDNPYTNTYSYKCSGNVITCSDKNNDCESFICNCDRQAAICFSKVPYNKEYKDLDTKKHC
# Description: as §1, §2, §3, §4
structure (smiles),measurement,setting,value
"CCCCCCCCCCCC/C=C\[C@@H](SC[C@H](NC(C)=O)C(=O)OC)[C@@H](O)CCCCO [Compound 2, Methyl N-acetyl-S-6[(5S,6R)-1,5-dihydroxy-7(Z)-eicosenyl]-(R)-cysteinate]",Percent Inhibition of the Hydrolytic Activity of Porcine Pancreas Phospholipase A2,"[1]; at 10^-5 Molar (M), three independent trials, 10 µM",62% and 86% and 68%
same,Inhibition (percent) Mouse No. 1,[2]; 50 micrograms,33%
same,Inhibition (percent) Mouse No. 2,[2]; 50 micrograms,68%
same,Inhibition (percent) Mouse No. 1,[2]; 100 micrograms,53%
same,Inhibition (percent) Mouse No. 2,[2]; 100 micrograms,72%
same,Inhibition (percent) Mouse No. 1,[2]; 200 micrograms,62%
same,Inhibition (percent) Mouse No. 2,[2]; 200 micrograms,82%
same,Inhibition (percent) Mouse No. 1,[2]; 400 micrograms,75%
same,Inhibition (percent) Mouse No. 2,[2]; 400 micrograms,80%
"CCCCCCCCCCCC/C=C\[C@@H](SC[C@H](NC(=O)CC[C@H](N)C(=O)O)C(=O)NCC(=O)O)[C@@H](O)CCCCOC1CCCCO1 (stereo partly drawn) [Compound 3, S-6-[(5S,6R)-5-hydroxy-1-(2-tetrahydropyranyloxy)-7(Z)-eicosenyl] glutathione triethylammonium salt dihydrate]",inhibition at 100 µM,[3],55%
"CCCCCCCCCCCC/C=C\[C@@H](SC[C@H](N)C(=O)O)[C@@H](O)CCCCO [Compound 4, (5S,6R)-6-[S-(R)-cysteinyl] -7(Z)-eicosen-1,5-diol hemihydrate]",inhibition at 100 µM,[3],40%
"CCCCCCCCCCCC/C=C\[C@@H](SC[C@H](NC(C)=O)C(=O)OC)C(CCCCO)=NO [Compound 14, Methyl N-acetyl-S-6-[(5S,6R)-1-hydroxy-5-oximino-7(Z)-eicosenyl]-(R)-cysteinate]",Percent Inhibition of the Hydrolytic Activity of Porcine Pancreas Phospholipase A2,"[1]; at 10^-4M, 100 µM",73%
same,inhibition at 100 µM,"[1]; at 10^-4M, read-out: Percent Inhibition of the Hydrolytic Activity of Porcine Pancreas Phospholipase A2",72%
same,inhibition at 100 µM,[3],58%
